From patent US20260072027A1, “Peptides And Method” (Queen Mary University of London, priority 2022, published 2026)
Each block holds one substance with its values, some of them ahead of it. Where no end group is shown, it is not given here.

Columns and labels:
CD8+ T-cells (PBMCs) = assay: In vitro peptide stimulation and T-cell proliferation assay, CD8+; format: cell-based, human
Text: (§1) In vitro peptide stimulation and T-cell proliferation assay. Peripheral blood mononuclear cells (PBMCs) were freshly isolated from type 1 diabetes and healthy individuals using Ficoll-Hypaque density gradient centrifugation. PBMCs were labelled with the fluorescent dye CellTrace Violet (Invitrogen, Thermo Fisher Scientific) and cultured (2×10^5 cells/well) in round-bottom 96-well plates (Falcon, Becton Dickinson) with RPMI-1640 medium (Gibco, Thermo Fisher Scientific) supplemented with 5% autologous plasma in the presence or not of insulin peptides (20 μg/ml); PPD (10 μg/ml) and anti-CD3 (0.1 μg/ml; clone OKT3) were used as positive control. Two scrambled peptides: […] (SEQ ID NO: 17), […] (SEQ ID NO: 18), and the Exendin 9-39 fragment were used as negative controls. After 7 days, PBMCs were stained with PE-Cy7 anti-CD8 (clone RPA-T8, BD Pharmingen) and FITC anti-CD3 (clone UCHT1, BD Pharmingen). Samples were analysed by using a FACSCanto II (BD Bioscience) to evaluate T-cell proliferation measured as CellTrace Violet dilution. Cytofluorimetric analyses were performed using FlowJo Software (FlowJo, LLC). The results were given as stimulation index (SI), calculated as percentage of stimulated T-cell subset proliferation/percentage of unstimulated T-cell subset proliferation. Assay for detection of peptide specific T cells subsets was done as previously described (detailed in ESM methods, Assay for detection of peptide specific T cells)
(§2) T-cell stimulation with oxPTM-INSPs. To evaluate the immune cell response against the oxPTM-INSPs, we performed CD4+ and CD8+ T cells proliferation experiments using freshly isolated PBMCs (Study cohort 2, Table 1). Response was calculated as stimulatory index (SI) over unstimulated T-cells.

CD4+ T-cells (PBMCs) = assay: In vitro peptide stimulation and T-cell proliferation assay, CD4+; format: cell-based, human
Text: as §1, §2

serum IgG autoantibodies = assay: ELISA for autoantibody detection: serum antibody binding to native and oxPTM insulin peptides; design: species or system human; conditions: for Antibody reactivity of serum samples (in words): ELISA; for % binders, Healthy controls / Mean ± SEM (absorbance, OD), Healthy controls / % binders, Type 1 diabetes: Study cohort 1; for % binders, Healthy controls / Mean ± SEM (absorbance, OD), Healthy controls / % binders, Type 1 diabetes / Mean ± SEM (absorbance, OD), Type 1 diabetes: in house modifications; for % binders, Type 1 diabetes: cut-off = mean of healthy controls to Nt-INSP plus 3 SEM; for Mean ± SEM (absorbance, OD), Type 1 diabetes: Study cohort 1 sera
Protocol: ELISA for autoantibody detection. The ELISA analysis of Nt-INS and oxPTM-INS autoantibodies was performed as previously described [18](detailed in ESM methods, ELISA assay for antibody detection).
Statistical analyses. Statistical analyses were performed using Prism Software 9.0 (GraphPad, San Diego, CA, USA). Cut-off points of positivity (binders) in the antibody ELISA for each peptide were defined by the mean of optical absorbance (O.D) of healthy controls to the corresponding Nt-INSP plus three times the standard error of the mean (SEM). Specificity and sensitivity were evaluated by receiver operating characteristic (ROC) curve analysis. Area under the curve (AUC) is reported as absolute value and was tested for equality according to DeLong et al. Differences in antibody levels and T-cell stimulation indices (SI) between groups were tested by the One way ANOVA or Student's t-tests as appropriate. Correlation analyses were tested by Pearson or Spearman's test, as appropriate. Categorical analyses were performed by Chi-square or McNemar's tests, as appropriate. For each set of experiments, p values were adjusted for multiple comparison using the Holm-Sidak's test. Hierarchical cluster and Principal Component Analysis (PCA) was done using Clustvis software (https://biit.cs.ut.ee/clustvis/) and Prism Software 9.0, respectively.
Antibody reactivity of type 1 diabetes serum against the candidate oxPTM-INSP. Identified peptide candidates were synthesised and exposed to either HOCl or ^●OH to generate oxPTM-INSPs that were first assessed by TOF-MS/ES+TIC to confirm modification (FIG. 17). Antibody response against native INSPs (Nt-INSPs) and oxPTM-INSPs was evaluated by ELISA using sera from Study cohort 1.
ESM Methods ELISA assay for antibody detection. The ELISA analysis of native (Nt-INS) and modified insulin (oxPTM-INS) was performed as previously described. Briefly, the ELISA plate was coated overnight at 4° C. with 100 μl per well of modified or native insulin in 0.05 M carbonate/bicarbonate buffer pH 9.6 at 10 μg/ml. The next day, the plates were washed 3 times with 0.1% Tween PBS, followed by blocking for 2 hours at room temperature with 200 μl per well of 5% BSA in 0.1% Tween PBS. After washing, 100 μl of 1:200-diluted serum samples in 5% BSA-0.1% Tween PBS were added for additional 2 hours incubation. ELISA plates were then washed 3 times with 0.1% Tween PBS followed by probing with anti-human IgG horse radish peroxidase conjugated (HRP, Sigma) at 1:1,000 dilution in 5% BSA-0.1% Tween PBS for another 1.5 hours incubation. The ELISA plates were washed, and 100 μg/ml TMB substrate in 0.1M sodium acetate pH 6.0 plus 2 μl/10 ml of H2O2, were added. Subsequently, the reaction was stopped with 20% v/v sulphuric acid. The optical density (O.D.) was measured at 450 nm using a GENios plate reader and Magellan software (TECAN, Dorset, UK).

Substance: ERGFFYTPKTR (Ac-ERGFFYTPKTR) [INSP-6 with C-terminal arginine]
- CD8+ T-cell response, subjects with SI > 1 (%) (CD8+ T-cells (PBMCs); Controls (N = 11)): (27.3%)
- CD8+ T-cell response, subjects with SI > 3 (%) (CD8+ T-cells (PBMCs); Controls (N = 11)): (0.0%)
- CD8+ T-cell response, subjects with SI > 5 (%) (CD8+ T-cells (PBMCs); Controls (N = 11)): (0.0%)
- CD8+ T-cell response, subjects with SI > 10 (%) (CD8+ T-cells (PBMCs); Controls (N = 11)): (0.0%)
- CD8+ T-cell response, subjects with SI > 1 (%) (CD8+ T-cells (PBMCs); Type 1 diabetes (N = 18)): (44.4%)
- CD8+ T-cell response, subjects with SI > 3 (%) (CD8+ T-cells (PBMCs); Type 1 diabetes (N = 18)): (16.7%)
- CD8+ T-cell response, subjects with SI > 5 (%) (CD8+ T-cells (PBMCs); Type 1 diabetes (N = 18)): (16.7%)
- CD8+ T-cell response, subjects with SI > 10 (%) (CD8+ T-cells (PBMCs); Type 1 diabetes (N = 18)): (16.7%)
- CD4+ T-cell response, subjects with SI > 1 (%) (CD4+ T-cells (PBMCs); Controls (N = 11)): (36.4%)
- CD4+ T-cell response, subjects with SI > 3 (%) (CD4+ T-cells (PBMCs); Controls (N = 11)): (0.0%)
- CD4+ T-cell response, subjects with SI > 5 (%) (CD4+ T-cells (PBMCs); Controls (N = 11)): (0.0%)
- CD4+ T-cell response, subjects with SI > 10 (%) (CD4+ T-cells (PBMCs); Controls (N = 11)): (0.0%)
- CD4+ T-cell response, subjects with SI > 1 (%) (CD4+ T-cells (PBMCs); Type 1 diabetes (N = 18)): (55.6%)
- CD4+ T-cell response, subjects with SI > 3 (%) (CD4+ T-cells (PBMCs); Type 1 diabetes (N = 18)): (27.8%)
- CD4+ T-cell response, subjects with SI > 5 (%) (CD4+ T-cells (PBMCs); Type 1 diabetes (N = 18)): (21.1%)
- CD4+ T-cell response, subjects with SI > 10 (%) (CD4+ T-cells (PBMCs); Type 1 diabetes (N = 18)): (11.1%)

Substance: FVNQHLC [INSP-5, insulin B:1-7 peptide]
- Antibody reactivity of serum samples (in words) (serum IgG autoantibodies): No significant reactivity

- % binders, Healthy controls (serum IgG autoantibodies): 27%
- Mean ± SEM (absorbance, OD), Healthy controls (serum IgG autoantibodies): 0.296 ± 0.022
- % binders, Type 1 diabetes (serum IgG autoantibodies): 66%
- Mean ± SEM (absorbance, OD), Type 1 diabetes (serum IgG autoantibodies): 0.563 ± 0.053
- Mean ± SEM (absorbance, OD), Type 1 diabetes (serum IgG autoantibodies; listed as HOCl-modified oxPTM-INSP-4): 0.563±0.053
Substance: INSP-4 oxPTM-HOCI: INSP-4 peptide oxidised in house by HOCl (LVEALYLVCGERGFFYTPKT; also: oxidised by HOCl, modified residues not defined)

- type 1 diabetes binders (IgG autoantibody reactivity) (serum IgG autoantibodies; Study cohort 2, N = 18): 50%
Substance: ^●OH-INS: insulin modified by hydroxyl radical

- Antibody reactivity of serum samples (in words) (serum IgG autoantibodies): No reactivity
Substance: LVEALYLVCG

- % binders, Healthy controls (serum IgG autoantibodies): 12%
- Mean ± SEM (absorbance, OD), Healthy controls (serum IgG autoantibodies): 0.280 ± 0.020
- % binders, Type 1 diabetes (serum IgG autoantibodies): 83%
- Mean ± SEM (absorbance, OD), Type 1 diabetes (serum IgG autoantibodies): 0.461 ± 0.013
- Mean ± SEM (absorbance, OD), Type 1 diabetes (serum IgG autoantibodies; listed as ●OH-modified oxPTM-INSP-6): 0.461±0.013
Substance: INSP-6 oxPTM-•OH: INSP-6 peptide oxidised in house by hydroxyl radical (ERGFFYTPKT; not fully specified (N-terminus); also: oxidised by hydroxyl radical, modified residues not defined)

- % binders, Healthy controls (serum IgG autoantibodies): 86%
- Mean ± SEM (absorbance, OD), Healthy controls (serum IgG autoantibodies): 0.617 ± 0.042
- % binders, Type 1 diabetes (serum IgG autoantibodies): 86%
- Mean ± SEM (absorbance, OD), Type 1 diabetes (serum IgG autoantibodies): 0.667 ± 0.044
- Mean ± SEM (absorbance, OD), Type 1 diabetes (serum IgG autoantibodies; listed as ●OH-modified oxPTM-INSP-3): 0.667±0.044
Substance: INSP-3 oxPTM-•OH: INSP-3 peptide oxidised in house by hydroxyl radical (SLYQLENYCN; not fully specified (N-terminus); also: oxidised by hydroxyl radical, modified residues not defined)

- Antibody reactivity of serum samples (in words) (serum IgG autoantibodies): No significant reactivity
Substance: LVEALYLVCGER [INSP-2, insulin B:11-22 peptide]
